The nature of data set [1]: Binding efficiency of Compound 15 to aluminum-containing particles (Alhydrogel) in Tris buffer. In kind it is physicochemical. From the text: The efficiency of binding of compounds of Formula (A) to aluminum-containing particles, as reflected in the percentage (%) bound to aluminum-containing particles, is a function of the (weight/weight) ratio of aluminum-containing particles to compound and to the final concentration (mg/mL) of compound in suspension with aluminum hydroxide. By way of example, the dependence of binding efficiency on the aluminum-containing particles to compound (w/w) ratio is shown in Table 8, where the final concentration of Compound 15 is fixed at 2 mg/mL and the amount of aluminum hydroxide is varied to obtain the desired ratio. The percentage of Compound 15 bound were obtained as described above in the “Materials and Method”, and the suspensions of Compound 15/Alhydrogel® were prepared in 20 mM Tris buffer (pH 7.4) as described above in “Compound 15/Alhydrogel® Suspensions”.
In addition, for (w/w) ratios of aluminum-containing particles to compound of 1.5:1 and below, the binding efficiency has an apparent pH dependence. The effect of pH on binding efficiency is seen in Table 10, where the binding efficiency of Compound 15 at either a ratio of aluminum hydroxide to Compound 15 (w/w) of 1.5:1 or 2:1 is given shown. The percentage of Compound bound was obtained as described above, although in Tris buffer at differing pH values. The suspensions of Compound 15/Alhydrogel® in Tris buffer at various were prepared as described above in “Compound 15/Alhydrogel® Suspensions”.

A short description of data set [2]: Wistar rat subcutaneous PK dose study (Example 9). As to conditions: sc, 600 ug, 600 μg Compound 15 s.c., male Wistar rats, plasma. In kind it is in vivo. The procedure:
The pharmacokinetic properties of Compound 15 were examined in naïve male Wistar rats following: • a) a single 200 μL subcutaneous (s.c.) injection of 600 μg of free form Compound 15 in 100 mM Tris buffer pH 7.4; • b) a single 200 μL subcutaneous (s.c.) injection of 50 μg of Compound 15 adsorbed to aluminum hydroxide at a 1:2.5 ratio (w/w) of Compound 15 to aluminum hydroxide-Suspension E described below; • c) a single 200 μL subcutaneous (s.c.) injection of 200 μg of Compound 15 adsorbed to aluminum hydroxide at a 1:2.5 ratio (w/w) of Compound 15 to aluminum hydroxide-Suspension D described below, and • d) a single 200 μL subcutaneous (s.c.) injection of 600 μg of Compound 15 adsorbed to aluminum hydroxide at a 1:2.5 ratio (w/w) of Compound 15 to aluminum hydroxide-Suspension C described below.
In this study, male Wistar rats (n=3 per group) were injected subcutaneously (s.c.) with 600 μg free Compound 15 or increasing doses of 50, 200 and 600 μg of Compound 15 absorbed to aluminum hydroxide. An injection volume of 200 μL of Suspension E, Suspension D and Suspension C was used to obtain 50, 200 and 600 μg of Compound 15 absorbed to aluminum hydroxide, respectively. The injection volume of 200 μL per rat was not normalized to body weights of the rats. As described above the Compound 15/aluminum hydroxide ratio for Suspension E, Suspension D and Suspension C was fixed at 1:2.5 w/w.
Blood samples (˜100 μL each) were taken serially via saphenous bleed from each rat until 96 h post dose (see Table 9 for sampling schedule). Blood samples were centrifuged to separate plasma and the plasma samples were frozen at −20° C. prior to analysis using LC/MS/MS (as described in Example 5) to obtain the systemic concentrations of Compound 15.

The target in the next data set is T1, human TLR7 (Homo sapiens, UniProt Q9NYK1).
T1 sequence (Q9NYK1 27-1049): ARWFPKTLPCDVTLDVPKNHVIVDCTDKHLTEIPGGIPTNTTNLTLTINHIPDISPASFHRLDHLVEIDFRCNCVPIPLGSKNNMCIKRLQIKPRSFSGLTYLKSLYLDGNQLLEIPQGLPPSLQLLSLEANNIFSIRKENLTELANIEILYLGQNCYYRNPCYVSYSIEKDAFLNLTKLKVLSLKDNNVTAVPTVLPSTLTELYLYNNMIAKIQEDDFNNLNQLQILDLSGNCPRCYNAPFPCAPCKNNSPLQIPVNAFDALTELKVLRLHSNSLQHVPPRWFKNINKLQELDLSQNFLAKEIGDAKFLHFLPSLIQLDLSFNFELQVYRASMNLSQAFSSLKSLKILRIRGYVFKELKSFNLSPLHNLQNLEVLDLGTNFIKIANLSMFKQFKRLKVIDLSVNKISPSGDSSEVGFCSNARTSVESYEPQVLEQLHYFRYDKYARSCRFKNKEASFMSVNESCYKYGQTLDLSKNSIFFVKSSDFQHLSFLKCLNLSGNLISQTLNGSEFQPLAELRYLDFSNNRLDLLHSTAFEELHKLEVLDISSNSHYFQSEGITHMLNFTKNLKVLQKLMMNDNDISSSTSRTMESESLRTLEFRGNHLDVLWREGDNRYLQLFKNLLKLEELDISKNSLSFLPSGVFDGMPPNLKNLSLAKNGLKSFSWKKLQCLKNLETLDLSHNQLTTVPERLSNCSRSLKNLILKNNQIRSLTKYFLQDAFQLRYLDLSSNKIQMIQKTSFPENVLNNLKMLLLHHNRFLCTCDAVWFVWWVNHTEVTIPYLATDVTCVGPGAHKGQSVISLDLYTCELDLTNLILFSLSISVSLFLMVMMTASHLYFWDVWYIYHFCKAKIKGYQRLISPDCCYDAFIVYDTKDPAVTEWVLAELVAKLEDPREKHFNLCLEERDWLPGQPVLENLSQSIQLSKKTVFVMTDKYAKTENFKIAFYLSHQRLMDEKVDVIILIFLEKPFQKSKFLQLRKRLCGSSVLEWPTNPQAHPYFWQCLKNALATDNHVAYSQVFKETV
Description: TLR7 reporter gene assay (NF-kB-driven luciferase) in HEK293 cells. (In general: A reporter such as luciferase makes a cellular process visible.)

Setting [3] is: Compound 15 2 mg/mL, aluminum 0.2 mg/mL, ratio 0.1:1, 20 mM Tris pH 7.4.
The mark [4] stands for this setting: Compound 15 2 mg/mL, aluminum 4 mg/mL, ratio 2:1, 20 mM Tris pH 7.4.

As to `Cc1cc(OCCOCCC(F)(F)P(=O)(O)O)ccc1CCc1cnc2c(N)nc3cc(CCC(=O)O)ccc3c2c1` [Compound 15, 3-(5-amino-2-(4-(2-(3,3-difluoro-3-phosphonopropoxy)ethoxy)-2-methylphenethyl)benzo[f][1,7]naphthyridin-8-yl)propanoic acid], the “Compound 15 % Bound” value in data set [1] (setting [3]) is 12.5%; in data set [1] (Compound 15 2 mg/mL, aluminum 0.5 mg/mL, ratio 0.25:1, 20 mM Tris pH 7.4), 25.7%; in data set [1] (setting [4]) it was 99.7%; in data set [1] (aluminum hydroxide:Compound 15 ratio (w/w) 1.5:1, Tris buffer pH 8) it was 91.1%; in data set [1] (aluminum hydroxide:Compound 15 ratio (w/w) 2:1, Tris buffer pH 7.5), 99.7%. Also, the “Compound 15 % Free” value is 87.5% in data set [1] (setting [3]); 56.5% in data set [1] (Compound 15 2 mg/mL, aluminum 1 mg/mL, ratio 0.5:1, 20 mM Tris pH 7.4); 0.3% in data set [1] (setting [4]). Also, in data set [2], the AUC(0-inf) – broadly, total exposure, with the tail of the curve extrapolated – stood at 2560 ng·h/mL. The Cmax (usually the maximum level reached in the sampled fluid or tissue) in data set [2] worked out at 3660 ng/mL. Further, the time to peak (Tmax) (in general, the time from dosing to the highest level) in data set [2] was 0.25 h. Besides, the half-life (in general, the time needed for the level to fall by half in the phase considered) in data set [2] was 2.1 h. Moreover, at human TLR7, the EC50 (as a rule, the concentration needed to bring the measured effect to its halfway point) amounted to 96 nM.

Source of the values: US11752162B2, “Compounds and compositions for treating solid tumors by intratumoral administration” (Novartis AG, priority 2017, dated 2023).
